{"source": "patent US20070010581A1", "about": "“Use of 2,5-dihydroxybenzenesulfonic compounds for the treatment of disorders based on an impairment of no production and/or of regulation of edhf function” (priority 2002, published 2007)", "key": {"[1]": {"tested_on": "human penile resistance arteries (HPRA)", "assay": "Vascular reactivity of resistance penile arteries (myograph, isometric tension)", "procedure": "Penile small arteries, helicine arteries (lumen diameter 150-400 μm), which are the terminal branches of deep penile arteries, were dissected by carefully removing the adhering trabecular tissue, and arterial ring segments (of 2 mm length) were subsequently mounted on two 40 μm wires on microvascular double Halpern-Mulvany myographs (J.P. Trading, Aarhus, Denmark) for isometric tension recordings. The vascular segments were allowed to equilibrate for 30 min in physiological salt solution (PSS) of the following composition (each given in mM): 119 NaCl, 4.6 KCl; 1.5 CaCl2, 1.2 MgCl2, 24.9 NaHCO3, 11 Glucose, 1,2 KH2PO4, 0.027 EDTA in water at 37° C., continuously bubbled with a 95% O2/5% CO2 mixture to maintain a pH of 7.4. Passive tension and internal circumference of the vascular segments when relaxed in situ under a transmural pressure of […] (L100) were determined. The vascular segments were then set to an internal circumference eqivalent to 90% of L100, at which the force development was dose to maximal as described in Mulvany M J, Halpem W., “Contractile properties of small resistance arteries in spontaneously hypertensive and normotensive rats”, Circ. Res., 41, 19-26, 1977. The respective literature description is incorporated by reference and is part of the disclosure. The preparations were then exposed to 125 mM K^+ (KPSS, equimolar substitution of NaCl for KCl in PSS) and the contractile response was measured. The arteries were contracted with 1 μm norepinephrine (approximately 80% of KPSS induced contraction) and relaxation responses were evaluated by cumulative additions of compounds to the chambers.\nRelaxation responses are expressed as percentage of total relaxation (loss in tone) induced by the addition of 0.1 mM papaverine HCl to the chambers at the end of the experiment. All data are expressed as mean±standard error. Complete concentration-response or frequency-response curves were obtained and compared by a two-factor analysis of variance (ANOVA) statistical test using StatView sotfware for Apple computers. Erectile responses were determined by measuring the area under the curve (AUC) of the intracavemosal pressure increases to rat cavernosal nerve stimulation normalized by mean arterial pressure values. The complete frequency-response curves were compared by a two-factor ANOVA test."}, "[2]": {"tested_on": "erectile responses (intracavernosal pressure) to cavernosal nerve stimulation", "assay": "Erectile responses to cavernosal nerve stimulation in anesthetized rats", "type": "in vivo, rat", "details": "intravenous 10 mg/kg, stimulation 60 min after administration", "procedure": "Male Sprague-Dawley rats were anesthetized with ketamine (60 mg/kg). The surgical procedure consisted of dissection and isolation of the right cavernous nerve through an abdominal midline incision and exposure of penile crura through a transverse perineal incision. Intracavemosal pressure (ICP) measurements were accomplished by insertion into the right crus of a 23-gauge needle connected to a disposable pressure transducer (Abbott, Sligo, Ireland) and a data acquisition system (ADInstruments, Castle Hill, Australia). Left carotid artery and right external jugular vein were catheterized for constant blood pressure measurement and saline or drug infusion, respectively. Electrical stimulation was applied by a delicate platinum bipolar hook electrode connected to a stimulator and current amplifier (Cibertec, Madrid, Spain). Parameters of electrical stimulation consisted of pulses with a duration of 1 ms and 1.5 mA of current intensity for 1 minute. […]\nRelaxation responses are expressed as percentage of total relaxation (loss in tone) induced by the addition of 0.1 mM papaverine HCl to the chambers at the end of the experiment. All data are expressed as mean±standard error. […] Erectile responses were determined by measuring the area under the curve (AUC) of the intracavemosal pressure increases to rat cavernosal nerve stimulation normalized by mean arterial pressure values. […]"}}, "data": [{"compound": "O=S(=O)(O)c1cc(O)ccc1O", "note": "[calcium dobesilate, calcium dihydroxy-2,5 benzenesulfonate]", "values": [{"measurement": "effect on ACh-induced relaxation of HPRA", "setting": "[1]; calcium dobesilate 10 μM", "result": "markedly potentiated"}, {"measurement": "potentiation of ACh-induced relaxation of HPRA under combined inhibition of NOS and COX", "setting": "[1]; calcium dobesilate 10 μM, combined inhibition of NOS and COX", "result": "not significantly affected"}, {"measurement": "potentiation of ACh-induced relaxation of HPRA at high potassium concentration", "setting": "[1]; calcium dobesilate 10 μM, high potassium concentration (35 mM)", "result": "abolished"}, {"measurement": "potentiating effects on ACh-induced relaxation of HPRA with APA and CTX", "setting": "[1]; combination of APA (100 nM) and CTX (100 nM)", "result": "abolished the potentiating effects"}, {"measurement": "potentiating effects on ACh-induced relaxation of HPRA resistant to NOS and COX inhibition, with miconazole", "setting": "[1]; miconazole (0.3 mM)", "result": "significantly reduced the potentiating effects"}, {"measurement": "erectile responses to cavernosal nerve stimulation", "setting": "[2]", "result": "significantly enhanced the erectile responses"}]}]}
